Reference: the NIST ThermoML archive (doi:10.1016/j.fluid.2019.05.015)
Numbers after ± are expanded uncertainties.

What was measured:
[1] = refractive index (Na D-line) (dimensionless); xn = mol fraction of the nth substance listed; settings: 100 kPa, Liquid, Standard Abbe refractometry
[2] = mean ionic activity coefficient (dimensionless); mn = molality of the nth substance listed, in mol/kg; settings: 100 kPa, Liquid, Electrochemical cell potential

CCn1cc[n+](C)c1.[Br-] [1-ethyl-3-methylimidazolium bromide] + O
Settings | mean ionic activity coefficient | refractive index
[1], 298.2 K, x2 = 0.0971 | – | 1.549 ± 0.0006
[1], 298.2 K, x2 = 0.188 | – | 1.545 ± 0.0006
[1], 298.2 K, x2 = 0.2981 | – | 1.536 ± 0.0006
[1], 298.2 K, x2 = 0.3857 | – | 1.5335 ± 0.0006
[1], 298.2 K, x2 = 0.471 | – | 1.525 ± 0.0005
[1], 298.2 K, x2 = 0.5966 | – | 1.5115 ± 0.0005
[1], 298.2 K, x2 = 0.6884 | – | 1.4985 ± 0.0005
[1], 298.2 K, x2 = 0.7863 | – | 1.4625 ± 0.0005
[1], 298.2 K, x2 = 0.8884 | – | 1.4305 ± 0.0005
[1], 308.2 K, x2 = 0.0926 | – | 1.5455 ± 0.0006
[1], 308.2 K, x2 = 0.1801 | – | 1.5425 ± 0.0006
[1], 308.2 K, x2 = 0.2947 | – | 1.534 ± 0.0006
[1], 308.2 K, x2 = 0.3829 | – | 1.53 ± 0.0006
[1], 308.2 K, x2 = 0.4714 | – | 1.5235 ± 0.0005
[1], 308.2 K, x2 = 0.5983 | – | 1.509 ± 0.0005
[1], 308.2 K, x2 = 0.6871 | – | 1.4955 ± 0.0005
[1], 308.2 K, x2 = 0.7851 | – | 1.4595 ± 0.0005
[1], 308.2 K, x2 = 0.888 | – | 1.427 ± 0.0005
[1], 318.2 K, x2 = 0.0923 | – | 1.5425 ± 0.0006
[1], 318.2 K, x2 = 0.1796 | – | 1.54 ± 0.0006
[1], 318.2 K, x2 = 0.2939 | – | 1.531 ± 0.0006
[1], 318.2 K, x2 = 0.382 | – | 1.5265 ± 0.0006
[1], 318.2 K, x2 = 0.4704 | – | 1.521 ± 0.0005
[1], 318.2 K, x2 = 0.5974 | – | 1.5065 ± 0.0005
[1], 318.2 K, x2 = 0.6862 | – | 1.4925 ± 0.0005
[1], 318.2 K, x2 = 0.7844 | – | 1.458 ± 0.0005
[1], 318.2 K, x2 = 0.8876 | – | 1.425 ± 0.0005
[2], 298.2 K, m1 = 0.021 | 0.8957 ± 0.005 | –
[2], 298.2 K, m1 = 0.0419 | 0.748 ± 0.0051 | –
[2], 298.2 K, m1 = 0.0585 | 0.7149 ± 0.0052 | –
[2], 298.2 K, m1 = 0.0791 | 0.6998 ± 0.005 | –
[2], 298.2 K, m1 = 0.0995 | 0.6908 ± 0.0049 | –
[2], 298.2 K, m1 = 0.2548 | 0.5703 ± 0.0048 | –
[2], 298.2 K, m1 = 0.4968 | 0.4953 ± 0.0048 | –
[2], 298.2 K, m1 = 0.7334 | 0.45 ± 0.0048 | –
[2], 298.2 K, m1 = 1.003 | 0.397 ± 0.0048 | –
[2], 298.2 K, m1 = 1.244 | 0.378 ± 0.0048 | –
[2], 298.2 K, m1 = 1.489 | 0.361 ± 0.0048 | –
[2], 308.2 K, m1 = 0.0211 | 0.8798 ± 0.0044 | –
[2], 308.2 K, m1 = 0.042 | 0.8527 ± 0.0045 | –
[2], 308.2 K, m1 = 0.0586 | 0.8229 ± 0.0045 | –
[2], 308.2 K, m1 = 0.0793 | 0.769 ± 0.0045 | –
[2], 308.2 K, m1 = 0.0999 | 0.7385 ± 0.0045 | –
[2], 308.2 K, m1 = 0.2555 | 0.6299 ± 0.0045 | –
[2], 308.2 K, m1 = 0.4948 | 0.5249 ± 0.0044 | –
[2], 308.2 K, m1 = 0.7324 | 0.4686 ± 0.0044 | –
[2], 308.2 K, m1 = 1.003 | 0.42 ± 0.0044 | –
[2], 308.2 K, m1 = 1.245 | 0.39 ± 0.0044 | –
[2], 308.2 K, m1 = 1.489 | 0.375 ± 0.0044 | –
[2], 308.2 K, m1 = 1.744 | 0.363 ± 0.0044 | –
[2], 308.2 K, m1 = 1.995 | 0.346 ± 0.0044 | –
[2], 308.2 K, m1 = 2.251 | 0.322 ± 0.0044 | –
[2], 308.2 K, m1 = 2.499 | 0.307 ± 0.0044 | –
[2], 318.2 K, m1 = 0.0093 | 0.8999 ± 0.0044 | –
[2], 318.2 K, m1 = 0.0187 | 0.8927 ± 0.0044 | –
[2], 318.2 K, m1 = 0.0418 | 0.8287 ± 0.0044 | –
[2], 318.2 K, m1 = 0.0603 | 0.7921 ± 0.0044 | –
[2], 318.2 K, m1 = 0.0786 | 0.7691 ± 0.0044 | –
[2], 318.2 K, m1 = 0.1014 | 0.7508 ± 0.0044 | –
[2], 318.2 K, m1 = 0.2568 | 0.6434 ± 0.0044 | –
[2], 318.2 K, m1 = 0.4956 | 0.5317 ± 0.0044 | –
[2], 318.2 K, m1 = 0.7332 | 0.4709 ± 0.0044 | –
[2], 318.2 K, m1 = 1.003 | 0.423 ± 0.0044 | –
[2], 318.2 K, m1 = 1.244 | 0.399 ± 0.0044 | –
[2], 318.2 K, m1 = 1.487 | 0.385 ± 0.0044 | –
[2], 318.2 K, m1 = 1.743 | 0.366 ± 0.0044 | –
[2], 318.2 K, m1 = 1.995 | 0.344 ± 0.0044 | –
[2], 318.2 K, m1 = 2.251 | 0.33 ± 0.0044 | –
[2], 318.2 K, m1 = 2.5 | 0.32 ± 0.0044 | –
